Key:
Experiment in all cases: fitness (endpoint OD595 vs no drug) (fraction); higher = more growth
[1] = tested on: B. subtilis 168
How it was run: (§1)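 Background-subtracted growth curves were the basis for fitness, taken as the optical density at entry into stationary phase over the robust mean of no-drug control wells. A cap of 1 was applied. The curves came from OD595 readings every 30 min for 14 h at 37 °C, in 384-well plates seeded at OD595 0.01 with 30 µl, or 55 µl for S. pneumoniae.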

[2] = tested on: S. pneumoniae D39V
How it was run: as §1

[3] = tested on: S. aureus Newman
How it was run: as §1

C[C@H]1c2cccc(O)c2C(=O)C2=C(O)[C@]3(O)C(=O)C(C(N)=O)=C(O)[C@@H](N(C)C)[C@@H]3[C@@H](O)[C@@H]21 [Doxycycline] + CC1=C(C(=O)O)N2C(=O)[C@@H](NC(=O)[C@H](N)c3ccccc3)[C@H]2SC1 [Cephalexin]
fitness ([1]; first compound 0.02 µg/mL, partner 0.125 µg/mL): 0.834 | fitness ([1]; first compound 0.02 µg/mL, partner 0.25 µg/mL): 0.871 | fitness ([1]; first compound 0.02 µg/mL, partner 0.5 µg/mL): 0.907 | fitness ([1]; first compound 0.02 µg/mL, partner 1 µg/mL, one replicate): ≥ 1 | fitness ([1]; first compound 0.04 µg/mL, partner 0.125 µg/mL): 0.702 | fitness ([1]; first compound 0.04 µg/mL, partner 0.25 µg/mL): 0.771 | fitness ([1]; first compound 0.04 µg/mL, partner 0.5 µg/mL): 0.711 | fitness ([1]; first compound 0.04 µg/mL, partner 1 µg/mL, one replicate): 0.84 | fitness ([1]; first compound 0.08 µg/mL, partner 0.125 µg/mL): 0.413 | fitness ([1]; first compound 0.08 µg/mL, partner 0.25 µg/mL): 0.375 | fitness ([1]; first compound 0.08 µg/mL, partner 1 µg/mL, one replicate): 0.793 | fitness ([2]; first compound 0.003875 µg/mL, partner 1 µg/mL, one replicate): 0.601 | fitness ([2]; first compound 0.003875 µg/mL, partner 2 µg/mL, one replicate): 0.0976 | fitness ([2]; first compound 0.003875 µg/mL, partner 4 µg/mL, one replicate): 0.0088 | fitness ([2]; first compound 0.00775 µg/mL, partner 1 µg/mL, one replicate): 0.722 | fitness ([2]; first compound 0.00775 µg/mL, partner 2 µg/mL, one replicate): 0.186 | fitness ([2]; first compound 0.00775 µg/mL, partner 4 µg/mL, one replicate): 0.0118 | fitness ([2]; first compound 0.0155 µg/mL, partner 0.125 µg/mL, one replicate): 0.902 | fitness ([2]; first compound 0.0155 µg/mL, partner 0.25 µg/mL, one replicate): 0.867 | fitness ([2]; first compound 0.0155 µg/mL, partner 0.5 µg/mL, one replicate): 0.879 | fitness ([2]; first compound 0.0155 µg/mL, partner 1 µg/mL): 0.873 | fitness ([2]; first compound 0.0155 µg/mL, partner 2 µg/mL): 0.474 | fitness ([2]; first compound 0.0155 µg/mL, partner 4 µg/mL): 0.0211 | fitness ([2]; first compound 0.031 µg/mL, partner 0.125 µg/mL, one replicate): 0.916 | fitness ([2]; first compound 0.031 µg/mL, partner 0.25 µg/mL, one replicate): 0.885 | fitness ([2]; first compound 0.031 µg/mL, partner 0.5 µg/mL, one replicate): 0.887 | fitness ([2]; first compound 0.031 µg/mL, partner 1 µg/mL, one replicate): 0.756 | fitness ([2]; first compound 0.031 µg/mL, partner 2 µg/mL, one replicate): 0.634 | fitness ([2]; first compound 0.031 µg/mL, partner 4 µg/mL, one replicate): 0.0444 | fitness ([2]; first compound 0.062 µg/mL, partner 0.125 µg/mL, one replicate): 0.807 | fitness ([2]; first compound 0.062 µg/mL, partner 0.25 µg/mL, one replicate): 0.808 | fitness ([2]; first compound 0.062 µg/mL, partner 0.5 µg/mL, one replicate): 0.809 | fitness ([2]; first compound 0.062 µg/mL, partner 1 µg/mL, one replicate): 0.667 | fitness ([2]; first compound 0.062 µg/mL, partner 2 µg/mL, one replicate): 0.51 | fitness ([2]; first compound 0.062 µg/mL, partner 4 µg/mL, one replicate): 0.0551

CC1(C)S[C@@H]2[C@H](NC(=O)Cc3ccccc3)C(=O)N2[C@H]1C(=O)O [Penicillin G] + CCN(CC)CCOC(=O)c1ccc(N)cc1 [Procaine]
fitness ([3]; first compound 0.0195 µg/mL, partner 85.5 µg/mL): 0.899 | fitness ([3]; first compound 0.0195 µg/mL, partner 171 µg/mL): 0.876 | fitness ([3]; first compound 0.0195 µg/mL, partner 342 µg/mL): 0.876 | fitness ([3]; first compound 0.039 µg/mL, partner 85.5 µg/mL): 0.943 | fitness ([3]; first compound 0.039 µg/mL, partner 171 µg/mL): 0.925 | fitness ([3]; first compound 0.039 µg/mL, partner 342 µg/mL): 0.914 | fitness ([3]; first compound 0.078 µg/mL, partner 85.5 µg/mL): 0.947 | fitness ([3]; first compound 0.078 µg/mL, partner 171 µg/mL): 0.977 | fitness ([3]; first compound 0.078 µg/mL, partner 342 µg/mL): 0.952

CN(C)[C@@H]1C(O)=C(C(N)=O)C(=O)[C@@]2(O)C(O)=C3C(=O)c4c(O)ccc(Cl)c4[C@@](C)(O)[C@H]3C[C@@H]12 [Chlortetracycline] + C[C@H]1COc2c(N3CCN(C)CC3)c(F)cc3c(=O)c(C(=O)O)cn1c23 [Levofloxacin]
fitness ([1]; first compound 0.0475 µg/mL, partner 0.001 µg/mL, one replicate): 0.924 | fitness ([1]; first compound 0.0475 µg/mL, partner 0.002 µg/mL): 0.898 | fitness ([1]; first compound 0.0475 µg/mL, partner 0.0039 µg/mL): 0.855 | fitness ([1]; first compound 0.0475 µg/mL, partner 0.0078 µg/mL, one replicate): 0.907 | fitness ([1]; first compound 0.0475 µg/mL, partner 0.0312 µg/mL): 0.0308 | fitness ([1]; first compound 0.0475 µg/mL, partner 0.0625 µg/mL): 0.0341 | fitness ([1]; first compound 0.0475 µg/mL, partner 0.125 µg/mL): 0.0327 | fitness ([1]; first compound 0.095 µg/mL, partner 0.001 µg/mL, one replicate): 0.912 | fitness ([1]; first compound 0.095 µg/mL, partner 0.002 µg/mL): 0.854 | fitness ([1]; first compound 0.095 µg/mL, partner 0.0039 µg/mL): 0.854 | fitness ([1]; first compound 0.095 µg/mL, partner 0.0078 µg/mL, one replicate): 0.824 | fitness ([1]; first compound 0.095 µg/mL, partner 0.0312 µg/mL): 0.0231 | fitness ([1]; first compound 0.095 µg/mL, partner 0.0625 µg/mL): 0.0369 | fitness ([1]; first compound 0.095 µg/mL, partner 0.125 µg/mL): 0.028 | fitness ([1]; first compound 0.19 µg/mL, partner 0.001 µg/mL, one replicate): 0.674 | fitness ([1]; first compound 0.19 µg/mL, partner 0.002 µg/mL): 0.593 | fitness ([1]; first compound 0.19 µg/mL, partner 0.0039 µg/mL): 0.61 | fitness ([1]; first compound 0.19 µg/mL, partner 0.0078 µg/mL, one replicate): 0.623 | fitness ([1]; first compound 0.19 µg/mL, partner 0.0312 µg/mL): 0.0218 | fitness ([1]; first compound 0.19 µg/mL, partner 0.0625 µg/mL): 0.054 | fitness ([1]; first compound 0.19 µg/mL, partner 0.125 µg/mL): 0.032 | fitness ([2]; first compound 0.012 µg/mL, partner 0.1725 µg/mL): 0.949 | fitness ([2]; first compound 0.012 µg/mL, partner 0.345 µg/mL): 0.803 | fitness ([2]; first compound 0.012 µg/mL, partner 0.69 µg/mL): 0.603 | fitness ([2]; first compound 0.024 µg/mL, partner 0.1725 µg/mL): 0.909 | fitness ([2]; first compound 0.024 µg/mL, partner 0.345 µg/mL): 0.88 | fitness ([2]; first compound 0.024 µg/mL, partner 0.69 µg/mL): 0.546 | fitness ([2]; first compound 0.048 µg/mL, partner 0.1725 µg/mL): 0.869 | fitness ([2]; first compound 0.048 µg/mL, partner 0.345 µg/mL): 0.828 | fitness ([2]; first compound 0.375 µg/mL, partner 0.2 µg/mL): 0.0411 | fitness ([2]; first compound 0.375 µg/mL, partner 0.4 µg/mL): 0.0338 | fitness ([2]; first compound 0.375 µg/mL, partner 0.8 µg/mL): 0.0351 | fitness ([2]; first compound 0.75 µg/mL, partner 0.2 µg/mL): 0.0448 | fitness ([2]; first compound 0.75 µg/mL, partner 0.4 µg/mL): 0.0671 | fitness ([2]; first compound 0.75 µg/mL, partner 0.8 µg/mL): 0.0531 | fitness ([2]; first compound 1.5 µg/mL, partner 0.2 µg/mL): 0.0471 | fitness ([2]; first compound 1.5 µg/mL, partner 0.4 µg/mL): 0.0332 | fitness ([2]; first compound 1.5 µg/mL, partner 0.8 µg/mL): 0.0439

CC1(C)S[C@@H]2[C@H](NC(=O)Cc3ccccc3)C(=O)N2[C@H]1C(=O)O [Penicillin G] + Cn1nnc(-c2ccc(-c3ccc(N4C[C@H](CO)OC4=O)cc3F)cn2)n1 [Tedizolid]
fitness ([3]; first compound 0.0195 µg/mL, partner 0.0625 µg/mL): 0.864 | fitness ([3]; first compound 0.0195 µg/mL, partner 0.125 µg/mL): 0.803 | fitness ([3]; first compound 0.0195 µg/mL, partner 0.25 µg/mL): 0.405 | fitness ([3]; first compound 0.039 µg/mL, partner 0.0625 µg/mL): 0.861 | fitness ([3]; first compound 0.039 µg/mL, partner 0.25 µg/mL): 0.339 | fitness ([3]; first compound 0.078 µg/mL, partner 0.0625 µg/mL): 0.849 | fitness ([3]; first compound 0.078 µg/mL, partner 0.125 µg/mL): 0.719 | fitness ([3]; first compound 0.078 µg/mL, partner 0.25 µg/mL): 0.305

CO/N=C(\C(=O)N[C@@H]1C(=O)N2C(C(=O)O)=C(COC(N)=O)CS[C@H]12)c1ccco1 [Cefuroxime] + CO[C@@]12[C@H](COC(N)=O)C3=C(C(=O)C(C)=C(N)C3=O)N1C[C@@H]1N[C@@H]12 [Mitomycin C]
fitness ([3]; first compound 0.04875 µg/mL, partner 0.0156 µg/mL, one replicate): 0.6 | fitness ([3]; first compound 0.04875 µg/mL, partner 0.0312 µg/mL, one replicate): 0.35 | fitness ([3]; first compound 0.04875 µg/mL, partner 0.0625 µg/mL, one replicate): 0.537 | fitness ([3]; first compound 0.0975 µg/mL, partner 0.0156 µg/mL, one replicate): 0.597 | fitness ([3]; first compound 0.0975 µg/mL, partner 0.0312 µg/mL, one replicate): 0.338 | fitness ([3]; first compound 0.0975 µg/mL, partner 0.0625 µg/mL, one replicate): 0.488 | fitness ([3]; first compound 0.195 µg/mL, partner 0.0156 µg/mL, one replicate): 0.653 | fitness ([3]; first compound 0.195 µg/mL, partner 0.0312 µg/mL, one replicate): 0.332 | fitness ([3]; first compound 0.195 µg/mL, partner 0.0625 µg/mL, one replicate): 0.413

CC1(C)S[C@@H]2[C@H](NC(=O)Cc3ccccc3)C(=O)N2[C@H]1C(=O)O [Penicillin G] + CN[C@H](CC(C)C)C(=O)N[C@H]1C(=O)N[C@@H](CC(N)=O)C(=O)N[C@H]2C(=O)N[C@H]3C(=O)N[C@H](C(=O)N[C@H](C(=O)O)c4cc(O)cc(O)c4-c4cc3ccc4O)[C@H](O)c3ccc(c(Cl)c3)Oc3cc2cc(c3O[C@@H]2O[C@H](CO)[C@@H](O)[C@H](O)[C@H]2O[C@H]2C[C@](C)(N)[C@H](O)[C@H](C)O2)Oc2ccc(cc2Cl)[C@H]1O [Vancomycin]
fitness ([3]; first compound 0.0195 µg/mL, partner 0.1875 µg/mL): 0.895 | fitness ([3]; first compound 0.0195 µg/mL, partner 0.375 µg/mL): 0.918 | fitness ([3]; first compound 0.0195 µg/mL, partner 0.75 µg/mL): 0.884 | fitness ([3]; first compound 0.039 µg/mL, partner 0.1875 µg/mL): 0.885 | fitness ([3]; first compound 0.078 µg/mL, partner 0.1875 µg/mL): 0.907 | fitness ([3]; first compound 0.078 µg/mL, partner 0.375 µg/mL): 0.926 | fitness ([3]; first compound 0.078 µg/mL, partner 0.75 µg/mL): 0.88
